IC50 data for 11 compounds are collected here from US20150259300A1, “4-(ORTHO)-FLUOROPHENYL-5-FLUOROPYRIMIDIN-2-YL AMINES CONTAINING A SULFONE GROUP” (BAYER PHARMA AKTIENGESELLSCHAFT, priority 2012, published 2015).

Some results are limits rather than exact numbers.

For experiment [1], the target named is T1, CDK9/CycT1 (Homo sapiens, UniProt P50750).
T1 construct: Recombinant full-length His-tagged human CDK9 and CycT1; His; purchased Invitrogen PV4131; host or cells: insect cells
Put plainly: CDK9/CycT1 high ATP kinase assay (TR-FRET, Method 1b). Type of experiment: biochemical. Particulars: 2 mM ATP. As to the method:
1b. CDK9/CyeT1 High ATP Kinase Assay
CDK9/CycT1-inhibitory activity of compounds of the present invention at a high ATP concentration after preincubation of enzyme and test compounds was quantified employing the CDK9/CycT1 TR-FRET assay as described in the following paragraphs.
Recombinant full-length His-tagged human CDK9 and CycT1, expressed in insect cells and purified by Ni-NTA affinity chromatography, were purchase from Invitrogen (Cat. No PV4131). As substrate for the kinase reaction biotinylated peptide biotin-Ttds-YISPLKSPYKISEG (C-terminus in amid form) was used which can be purchased e.g. form the company JERINI peptide technologies (Berlin, Germany).
(§1) For the assay 50 nl of a 100 fold concentrated solution of the test compound in DMSO was pipetted into a black low volume 384 well microtiter plate (Greiner Bio-One, Frickenhausen, Germany), 2 μl of a solution of CDK9/CycT1 in aqueous assay buffer [50 mM Tris/HCl pH 8.0, 10 mM MgCl2, 1.0 mM dithiothreitol, 0.1 mM sodium ortho-vanadate, 0.01% (v/v) Nonidet-P40 (Sigma)] were added and the mixture was incubated for […] at 22° C. to allow pre-binding of the test compounds to the enzyme before the start of the kinase reaction. Then the kinase reaction was started by the addition of 3 μl of a solution of adenosine-tri-phosphate (ATP, 3.3 mM=>final conc. in the 5 μl assay volume is 2 mM) and substrate (1.67 μM=>final conc. in the 5 μl assay volume is 1 μM) in assay buffer and the resulting mixture was incubated for a reaction time of […] at 22° C. The concentration of CDK9/CycT1 was adjusted depending of the activity of the enzyme lot and was chosen appropriate to have the assay in the linear range, typical concentrations were in the range of 0.5 ng/ml. The reaction was stopped by the addition of 5 μl of a solution of TR-FRET detection reagents (0.2 μl streptavidine-XL665 [Cisbio Bioassays, Codolet, France] and 1 nM anti-RB(pSer807/pSer811)-antibody from BD Pharmingen [#558389] and 1.2 nM LANCE EU-W1024 labeled anti-mouse IgG antibody [Perkin-Elmer, product no. AD0077]) in an aqueous EDTA-solution (100 mM EDTA, 0.2% (w/v) bovine serum albumin in 100 mM HEPES/NaOH pH 7.0).
(§2) The resulting mixture was incubated 1 h at 22° C. to allow the formation of complex between the phosphorylated biotinylated peptide and the detection reagents. Subsequently the amount of phosphorylated substrate was evaluated by measurement of the resonance energy transfer from the Eu-chelate to the streptavidine-XL. Therefore, the fluorescence emissions at 620 nm and 665 nm after excitation at 350 nm was measured in a HTRF reader, e.g. a Rubystar (BMG Labtechnologies, Offenburg, Germany) or a Viewlux (Perkin-Elmer). The ratio of the emissions at 665 nm and at […] was taken as the measure for the amount of phosphorylated substrate. The data were normalised (enzyme reaction without inhibitor=0% inhibition, all other assay components but no enzyme=100% inhibition).
(In general: Time-resolved FRET reads energy transfer from a long-lived donor to a nearby acceptor.)

For experiment [2], the target named is T2, CDK2/CycE (Homo sapiens, UniProt P24941).
T2 construct: GST; purchased ProQinase GmbH (Freiburg, Germany); host or cells: insect cells (Sf9)
Put plainly: CDK2/CycE kinase assay (TR-FRET, Method 2). Particulars: Method 2, 10 μM ATP. Type of experiment: biochemical.
Text: 2. CDK2/CycE Kinase Assay:
CDK2/CycE -inhibitory activity of compounds of the present invention was quantified employing the CDK2/CycE TR-FRET assay as described in the following paragraphs:
Recombinant fusion proteins of GST and human CDK2 and of GST and human CycE, expressed in insect cells (Sf9) and purified by Glutathion-Sepharose affinity chromatography, were purchased from ProQinase GmbH (Freiburg, Germany). As substrate for the kinase reaction biotinylated peptide biotin-Ttds-YISPLKSPYKISEG (C-terminus in amid form) was used which can be purchased e.g. form the company JERINI Peptide Technologies (Berlin, Germany).
as §1, with “of CDK2/CycE” for “of CDK9/CycT1”, “(ATP, 16.7” for “(ATP, 3.3 mM=>final conc. in the 5 μl assay volume is 2 mM) and substrate (1.67”, “is 10 μM) and substrate (1.25 μM=>final conc. in the 5 μl assay volume is 0.75” for “is 1”, “of 130” for “of 0.5”, “(0.2 μM” for “(0.2 μl”
as §2, with “TR-FRET” for “HTRF”

T1 sequence (P50750 whole entry): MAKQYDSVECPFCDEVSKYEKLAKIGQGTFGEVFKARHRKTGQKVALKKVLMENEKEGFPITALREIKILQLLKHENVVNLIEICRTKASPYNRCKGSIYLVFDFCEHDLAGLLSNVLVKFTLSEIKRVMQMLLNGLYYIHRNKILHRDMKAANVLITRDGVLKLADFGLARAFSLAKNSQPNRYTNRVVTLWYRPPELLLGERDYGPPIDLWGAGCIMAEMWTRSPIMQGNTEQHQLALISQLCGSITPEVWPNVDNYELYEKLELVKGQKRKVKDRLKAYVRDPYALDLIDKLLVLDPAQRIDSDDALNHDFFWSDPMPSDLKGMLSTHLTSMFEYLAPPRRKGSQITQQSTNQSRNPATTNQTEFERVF
T1 sequence (O60563 whole entry partner): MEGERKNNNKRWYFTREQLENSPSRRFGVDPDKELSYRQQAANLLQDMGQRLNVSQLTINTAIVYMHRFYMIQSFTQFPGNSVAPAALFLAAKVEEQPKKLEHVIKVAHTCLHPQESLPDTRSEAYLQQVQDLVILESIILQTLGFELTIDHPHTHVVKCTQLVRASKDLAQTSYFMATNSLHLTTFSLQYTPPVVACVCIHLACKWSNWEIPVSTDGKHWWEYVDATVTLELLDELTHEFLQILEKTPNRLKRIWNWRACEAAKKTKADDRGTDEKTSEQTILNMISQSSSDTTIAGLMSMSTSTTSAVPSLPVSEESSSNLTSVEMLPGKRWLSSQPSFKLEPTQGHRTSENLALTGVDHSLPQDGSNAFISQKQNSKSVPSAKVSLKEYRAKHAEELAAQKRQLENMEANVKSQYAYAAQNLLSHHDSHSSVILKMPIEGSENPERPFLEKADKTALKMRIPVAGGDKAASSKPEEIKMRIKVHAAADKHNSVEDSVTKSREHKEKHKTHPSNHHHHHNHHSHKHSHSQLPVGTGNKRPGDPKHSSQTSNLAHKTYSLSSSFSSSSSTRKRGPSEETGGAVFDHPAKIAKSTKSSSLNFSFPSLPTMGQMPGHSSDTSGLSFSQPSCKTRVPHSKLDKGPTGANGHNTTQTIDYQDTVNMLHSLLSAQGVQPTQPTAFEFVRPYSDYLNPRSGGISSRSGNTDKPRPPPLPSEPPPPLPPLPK

The term IC50 denotes the concentration that inhibits the measured activity by half. For `CC(C)S(=O)(=O)Cc1cccc(Nc2ncc(F)c(-c3ccc(F)cc3F)n2)c1` [Example 2, 4-(2,4-Difluorophenyl)-5-fluoro-N-{3-[(propan-2-ylsulfonyl)methyl]phenyl}pyrimidin-2-amine], the IC50 was found to be 2260 nM in experiment [1] and 1200 nM in experiment [2].
The corresponding values for `CS(=O)(=O)Cc1cc(F)cc(Nc2ncc(F)c(-c3ccc(F)cc3F)n2)c1` [Example 10, 4-(2,4-Difluorophenyl)-5-fluoro-N-{3-fluoro-5-[(methylsulfonyl)methyl]phenyl}pyrimidin-2-amine] are 2280 nM and 5800 nM.
On to `CS(=O)(=O)Cc1cc(Nc2ncc(F)c(-c3ccc(F)cc3F)n2)cc(S(F)(F)(F)(F)F)c1` [Example 6, 4-(2,4-Difluorophenyl)-5-fluoro-N-{3-[(methylsulfonyl)methyl]-5-(pentafluoro-λ^6-sulfanyl)phenyl}pyrimidin-2-amine], for which the figures for the IC50 in experiment [1] and in experiment [2] were 99 nM and 1760 nM, respectively.
Turning to `CS(=O)(=O)Cc1cccc(Nc2ncc(F)c(-c3ccc(F)cc3F)n2)c1` [Example 5, 4-(2,4-Difluorophenyl)-5-fluoro-N-{3-[(methylsulfonyl)methyl]phenyl}pyrimidin-2-amine], the IC50 in experiment [1] was 858 nM; in experiment [2], 470 nM.
With `CS(=O)(=O)Cc1cc(F)cc(Nc2ncc(F)c(-c3ccc(F)c(F)c3F)n2)c1` [Example 12, 5-fluoro-N-{3-fluoro-5-[(methylsulfonyl)methyl]phenyl}-4-(2,3,4-trifluorophenyl)pyrimidin-2-amine], the results for the IC50 in experiment [1] and in experiment [2] were 271 nM and 350 nM, respectively.
`COCCS(=O)(=O)Cc1cccc(Nc2ncc(F)c(-c3ccc(F)cc3F)n2)c1` [Example 4, 4-(2,4-Difluorophenyl)-5-fluoro-N-(3-{[(2-methoxyethyl)sulfonyl]methyl}phenyl)pyrimidin-2-amine]: the IC50 stood at 2260 nM in experiment [1] and 2600 nM in experiment [2].
The like results for `CCCS(=O)(=O)Cc1cc(F)cc(Nc2ncc(F)c(-c3ccc(F)cc3F)n2)c1` [Example 13, 4-(2,4-Difluorophenyl)-5-fluoro-N-{3-fluoro-5-[(propylsulfonyl)methyl]phenyl}pyrimidin-2-amine] were, in that order, 2280 nM and 580 nM.
With `CCCS(=O)(=O)Cc1cccc(Nc2ncc(F)c(-c3ccc(F)cc3F)n2)c1` [Example 8, 4-(2,4-difluorophenyl)-5-fluoro-N-{3-[(propylsulfonyl)methyl]phenyl}pyrimidin-2-amine], the IC50 in experiment [1] was 904 nM; in experiment [2], 570 nM.
On to `CS(=O)(=O)Cc1cc(F)cc(Nc2ncc(F)c(-c3cc(F)c(F)cc3F)n2)c1` [Example 11, 5-Fluoro-N-{3-fluoro-5-[(methylsulfonyl)methyl]phenyl}-4-(2,4,5-trifluorophenyl)pyrimidin-2-amine], for which the IC50 in experiment [1] and in experiment [2] was more than 20000 nM each time.
In the case of `CC(C)(C)S(=O)(=O)Cc1cccc(Nc2ncc(F)c(-c3ccc(F)cc3F)n2)c1` [Example 3, N-{3-[(tert-Butylsulfonyl)methyl]phenyl}-4-(2,4-difluorophenyl)-5-fluoropyrimidin-2-amine], the figures for the IC50 in experiment [1] and in experiment [2] were 14500 nM and 1000 nM, respectively.
As for `O=S(=O)(Cc1cccc(Nc2ncc(F)c(-c3ccc(F)cc3F)n2)c1)C1CC1` [Example 9, N-{3-[(Cyclopropylsulfonyl)methyl]phenyl}-4-(2,4-difluorophenyl)-5-fluoropyrimidin-2-amine], the concentration for half-maximal inhibition (IC50) came to 330 nM in experiment [1] and 410 nM in experiment [2].
